Source: patent US6784174B1, “Pyridine and pyrimidine derivatives and their use as inhibitors of cytokine mediated disease” (AstraZeneca AB, priority 1999, dated 2004)

What follows are compounds tested against T1, p38α (Homo sapiens, UniProt Q16539) (assay: In vitro enzyme assay, p38 kinase (p38α isoform)).
T1 construct: c-myc (N); 6His (N); made in house; host or cells: E. coli (PET vectors)
Type: biochemical
Procedure: The ability of compounds of the invention to inhibit the enzyme p38 kinase was assessed. Activity of particular test compounds against each of the p38α and p38β isoforms of the enzyme was determined.
Human recombinant MKK6 (GenBank Accesion Number G1209672) was isolated from Image clone 45578 (Genomics, 1996, 33, 151) and utilised to produce protein in the form of a GST fusion protein in a pGEX vector using analogous procedures to those disclosed by J. Han et al., Journal of Biological Chemistry, 1996, 271, 2886-2891. p38α (GenBank Accession Number G529039) and p38β (GenBank Accession Number G1469305) were isolated by PCR amplification of human lymphoblastoid cDNA (GenBank Accession Number GM1416) and human foetal brain cDNA [synthesised from mRNA (Clontech, catalogue no. 6525-1) using a Gibco superscript cDNA synthesis kit] respectively using oligonucleotides designed for the 5′ and 3′ ends of the human p38α and p38β genes using analogous procedures to those described by J. Han et al., Biochimica et Biophysica Acta, 1995, 126, 224-227 and Y. Jiang et al., Journal of Biological Chemistry, 1996, 271, 17920-17926.
Both p38 protein isoforms were expressed in e coli in PET vectors. Human recombinant p38α and p38β isoforms were produced as 5′ c-myc, 6His tagged proteins. Both MKK6 and the p38 proteins were purified using standard protocols: the GST MKK6 was purified using a glutathione sepharose column and the p38 proteins were purified using nickel chelate columns.
The p38 enzymes were activated prior to use by incubation with MKK6 for 3 hours at 30° C. The unactivated coli-expressed MKK6 retained sufficient activity to fully activate both isoforms of p38. The activation incubate comprised p38α (10 μl of 10 mg/ml) or p38β (10 μl of 5 mg/ml) together with MKK6 (10 μl of 1 mg/ml), ‘Kinase buffer’ [100 μl; pH 7.4 buffer comprising Tris (50 mM), EGTA (0.1 mM), sodium orthovanadate (0.1 mM) and β-mercaptoethanol (0.1%)] and MgATP (30 μl of 50 mM Mg(OCOCH3)2 and 0.5 mM ATP). This produced enough activated p38 enzyme for 3 Microtiter plates.
Test compounds were solubilised in DMSO and 10 μl of a 1:10 diluted sample in ‘Kinase Buffer’ was added to a well in a Microtiter plate. […] The precipitated protein was phosphorylated by p38 kinase and test compounds were assessed for their ability to inhibit this phosphorylation. The plates were filtered using a Canberra Packard Unifilter and washed with 2% TCA, dried overnight and counted on a Top Count scintillation counter.
Test compounds were tested initially at a single dose and active compounds were retested to allow IC50 values to be determined.

T1 sequence (Q16539 whole entry, canonical isoform): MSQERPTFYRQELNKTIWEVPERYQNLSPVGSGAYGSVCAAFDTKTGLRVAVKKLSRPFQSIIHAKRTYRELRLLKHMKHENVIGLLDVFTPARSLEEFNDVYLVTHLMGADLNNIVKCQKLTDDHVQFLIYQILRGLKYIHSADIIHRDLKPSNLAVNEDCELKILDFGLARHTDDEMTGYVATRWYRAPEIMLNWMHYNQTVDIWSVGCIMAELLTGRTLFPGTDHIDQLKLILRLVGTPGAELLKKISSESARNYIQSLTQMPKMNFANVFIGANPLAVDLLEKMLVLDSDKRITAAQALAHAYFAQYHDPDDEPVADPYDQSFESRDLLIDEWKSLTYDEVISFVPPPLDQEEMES

| Structure (SMILES) | IC50 [nM] |
| --- | --- |
| Cc1ccc(NC(=O)c2ccnc(N3CCOCC3)c2)cc1Nc1ncnc2scc(C)c12 [Example 2, 4-[2-Methyl-5-(2-morpholinopyridine-4-carboxamido)anilino]-5-methylthieno[2,3-d]pyrimidine] | 340 |
| Cc1ccc(NC(=O)c2ccnc(N3CCOCC3)c2)cc1Nc1ncnc2sccc12 [3(2)] | 70 |
| Cc1ccc(NC(=O)c2ccnc(N3CCOCC3)c2)cc1Nc1ncnc2ccsc12 [Example 1, 4-[2-Methyl-5-(2-morpholinopyridine-4-carboxamido)anilino]thieno[3,2-d]pyrimidine] | 60 |
| Cc1ccc(NC(=O)c2ccnc(N3CCOCC3)c2)cc1Nc1ncnc2c(C)csc12 [3(1)] | 40 |
